{"source": "patent US7323452B2", "about": "“Method for the accelerated in vivo removal of ethanol” (Wardan, L.L.C., priority 2000, dated 2008)", "assay_type_in_all_cases": "biochemical", "key": {"[1]": {"test": "Kinetics of transition metal oxidation of NADH (decrease in absorption at 340 nm)", "from_the_text": "The rate of oxidation of NADH is followed over time as the decrease in the absorption at 340 nm.\nThe procedure in Example 43 is repeated replacing vanadyl sulfate with potassium ferricyanide.\nThe procedure in Example 43 is repeated replacing vanadyl sulfate with sodium molybdate.\nThe procedure in Example 43 is repeated replacing vanadyl sulfate with sodium phosphotungstate."}, "[2]": {"target": "T1, Alcohol Dehydrogenase (from Equine liver) (Equus caballus, UniProt P00327)", "T1 construct": "Alcohol Dehydrogenase (from Equine liver); from tissue; host or cells: equine liver", "T1 sequence (P00327 whole entry)": "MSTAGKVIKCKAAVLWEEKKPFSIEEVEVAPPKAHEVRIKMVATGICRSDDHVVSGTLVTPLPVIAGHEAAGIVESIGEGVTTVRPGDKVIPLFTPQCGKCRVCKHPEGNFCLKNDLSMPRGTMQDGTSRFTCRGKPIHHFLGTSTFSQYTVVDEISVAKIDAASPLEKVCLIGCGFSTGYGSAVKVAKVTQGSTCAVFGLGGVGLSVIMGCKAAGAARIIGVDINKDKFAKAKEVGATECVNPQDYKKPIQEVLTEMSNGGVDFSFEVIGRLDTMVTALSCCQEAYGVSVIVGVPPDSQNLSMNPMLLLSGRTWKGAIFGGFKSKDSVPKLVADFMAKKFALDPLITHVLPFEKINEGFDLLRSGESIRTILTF", "test": "DNP test for acetaldehyde formation: ethanol oxidation by NAD+ with Alcohol Dehydrogenase, with or without additive", "description": "(§1) The reagent quenches any oxidative reaction of alcohol as well as detects the formation of acetaldehyde. An orange, crystalline precipitate indicates a positive reaction.\n(§2) The DNP reagent is a fresh solution of 0.5 gm. of 2.4-dinitrophenylhydrazine in 20 mL methanol and 5 mL concentrated sulfuric acid, diluted to 50 mL of deionized distilled water.\nTo a 0.05M solution of ethanol in a 1M (pH 9.25) phosphate buffer (10 μL) are added 10 μL each of a solution 0.08M in NAD^+ (in deionized distilled water) and 4 U/mL Alcohol Dehydrogenase (from Equine liver) in the above buffer, and diluted to 100 μL with buffer. At the end of a specified time, it was quenched with the DNP reagent.\nThe procedure in Example 1 was repeated with the addition of 10 μL of a 0.01M vanadyl sulfate solution in deionized distilled water.\nThe procedure-in Example 2 is repeated using a pH 7.25 1M phosphate buffer.\nThe procedure in Example 3 is repeated using a pH 7.25 1M phosphate buffer."}, "[3]": {"target": "ADH (Equus caballus, UniProt P00327)", "sequence (P00327 whole entry)": "as above", "test": "Rate of ADH catalyzed NAD+ oxidation of ethanol (rise in absorption at 340 nm) with additives", "details": "pH 9.25", "description": "In Examples 51-53, the rate of ADH catalyzed NAD^+ oxidation of alcohol is followed by the rise in absorption at 340 nm, with and without additives. When a solvent (methanol) is needed to dissolve the additive, an equal amount is added to the “blank” or “control”. The results, as summarized in Table 3, indicate the effectiveness of Daidezin, Aloin and Methoxatin as accelerators.\nTo a 0.01M solution of ethanol (10 μL) in 1M pH 9.25 phosphate buffer, in a multi-well plate, is added a solution of aloin, of the indicated concentration (10 μL) and 10 μL of a solution containing 0.2 U/mL ADH and diluted to 180 μL with buffer. To the mixture is added 20 μL of a 0.01M solution of NAD^+ in deionized distilled water, and the absorbance at 340 nm is followed with time.\nThe procedure in Example 51 is repeated using Daidezin.\nThe procedure in Example 51 is repeated using Methoxatin."}, "[4]": {"test": "DNP test for acetaldehyde formation: ethanol oxidation with the enzyme solution omitted", "details": "no additive, stood 15 minutes", "description": "as §1, §2\nThe procedure in Example 1 was repeated with the omission of the enzyme solution.\nThe procedure in Example 3 was repeated with the omission of the enzyme solution.\nThe procedure in Example 4 was repeated with the omission of NAD^+.\nThe procedure in Example 2 is repeated using a pH 7.25 1M phosphate buffer.\nThe procedure in Example 4 is repeated using a pH 7.25 1M phosphate buffer.\nThe procedure in Example 5 is repeated using a pH 7.25 1M phosphate buffer."}}, "note": "Marks after values point to notes of the source that are not given here."}
{"compound": "O=S(=O)([O-])[O-].[O]=[V+2]", "note": "[vanadyl sulfate]", "values": [{"measurement": "Slope", "setting": "[1]; pH 7.25", "result": ".0000036 mol/L/min"}, {"measurement": "Slope (OD/Min)", "setting": "[1]; pH 7.25", "result": ".0079 OD/Min"}, {"measurement": "Slope", "setting": "[1]; pH 9.25", "result": ".000005 mol/L/min"}, {"measurement": "Slope (OD/Min)", "setting": "[1]; pH 9.25", "result": ".0112 OD/Min"}, {"measurement": "DNP reaction (acetaldehyde formation)", "setting": "[2]; pH 7.25", "result": "positive"}, {"measurement": "DNP reaction (acetaldehyde formation)", "setting": "[2]; pH 9.25", "result": "positive"}]}
{"compound": "sodium phosphotungstate", "values": [{"measurement": "Slope", "setting": "[1]; pH 7.25", "result": 0, "unit": "mol/L/min"}, {"measurement": "Slope (OD/Min)", "setting": "[1]; pH 7.25", "result": 0, "unit": "OD/Min"}, {"measurement": "Slope", "setting": "[1]; pH 9.25", "result": ".0000006 mol/L/min"}, {"measurement": "Slope (OD/Min)", "setting": "[1]; pH 9.25", "result": ".007* OD/Min"}, {"measurement": "DNP results of Examples 25-30 repeated with the additive in place of vanadyl sulfate", "setting": "[2]; pH 7.25", "result": "almost identical results"}, {"measurement": "DNP results of Examples 1-5 repeated with the additive in place of vanadyl sulfate", "setting": "[2]; pH 9.25", "result": "almost identical results"}]}
{"compound": "O=C(O)c1cc(C(=O)O)c2c(n1)C(=O)C(=O)c1cc(C(=O)O)[nH]c1-2", "note": "[Methoxatin, 4,5-Dihydro-4,5-dioxo-1H-pyrrolo [2,3-f] quinoline-2,7,9-tricarboxylic acid]", "values": [{"measurement": "Relative rates of Ethanol Oxidation in presence of Additives (Control = 1)", "setting": "[3]; additive .000005M", "result": 1.29}, {"measurement": "Relative rates of Ethanol Oxidation in presence of Additives (Control = 1)", "setting": "[3]; additive .00001M", "result": 1.59}]}
{"compound": "[Na+].[Na+].[O]=[Mo](=[O])([O-])[O-]", "note": "[Molybdate, sodium molybdate]", "values": [{"measurement": "Slope", "setting": "[1]; pH 7.25", "result": ".00000012 mol/L/min"}, {"measurement": "Slope (OD/Min)", "setting": "[1]; pH 7.25, absorption at 340 nm, * unexplained, text mentions an induction period", "result": ".0025* OD/Min"}, {"measurement": "Slope", "setting": "[1]; pH 9.25", "result": ".0000003 mol/L/min"}, {"measurement": "Slope (OD/Min)", "setting": "[1]; pH 9.25, absorption at 340 nm, * unexplained, text mentions an induction period", "result": ".0035* OD/Min"}]}
{"compound": "ammonium molybdate", "values": [{"measurement": "DNP results of Examples 1-5 repeated with the additive in place of vanadyl sulfate", "setting": "[2]; pH 9.25", "result": "almost identical results"}]}
{"compound": "NC(=O)c1ccc[n+]([C@@H]2O[C@H](COP(=O)([O-])OP(=O)(O)OC[C@H]3O[C@@H](n4cnc5c(N)ncnc54)[C@H](O)[C@@H]3O)[C@@H](O)[C@H]2O)c1", "note": "[NAD^+, Nicotinamide Adenine Dinucleotide, reference compound]", "values": [{"measurement": "DNP reaction (acetaldehyde formation)", "setting": "[4]; pH 7.25, ethanol + NAD+", "result": "negative"}, {"measurement": "DNP reaction (acetaldehyde formation)", "setting": "[4]; pH 9.25, ethanol + NAD+", "result": "negative"}]}
{"compound": "O=c1c(-c2ccc(O)cc2)coc2cc(O)ccc12", "note": "[Daidezin]", "values": [{"measurement": "Relative rates of Ethanol Oxidation in presence of Additives (Control = 1)", "setting": "[3]; additive .000005M", "result": 1.28}, {"measurement": "Relative rates of Ethanol Oxidation in presence of Additives (Control = 1)", "setting": "[3]; additive .00001M", "result": 1.38}]}
{"compound": "O=C1c2c(O)cccc2C([C@@H]2O[C@H](CO)[C@@H](O)[C@H](O)[C@H]2O)c2cc(CO)cc(O)c21", "note": "(stereo partly shown) [Aloin]", "values": [{"measurement": "Relative rates of Ethanol Oxidation in presence of Additives (Control = 1)", "setting": "[3]; additive .000005M", "result": 1.07}, {"measurement": "Relative rates of Ethanol Oxidation in presence of Additives (Control = 1)", "setting": "[3]; additive .00001M", "result": 1.19}]}
